Measured values: US20180339963A1, “ANTICONVULSANT CARBAMATE DERIVATIVES” (Yissum Research Development Company of the Hebrew …, priority 2017, published 2018)
Like-named read-outs stand apart in the source and are kept apart here.

Experiments:
hCA I = biological target: T1, hCA I (Homo sapiens, UniProt P00915); experiment: Stopped flow CO2 hydrase assay, hCA I; type: biochemical; settings: mean from 3 assays, read-out: K1, hCAI
T1 construct: made in house
Procedure: (§1) An Applied Photophysics stopped-flow instrument has been used for assaying the CA catalysed CO2 hydration activity. Phenol red (at a concentration of 0.2 mM) has been used as indicator, working at the absorbance maximum of 557 nm, with 20 mM Hepes (pH 7.5) as buffer, and 20 mM Na2SO4 (for maintaining constant the ionic strength), following the initial rates of the CA-catalyzed CO2 hydration reaction for a period of 10-100 s. The CO2 concentrations ranged from 1.7 to 17 mM for the determination of the kinetic parameters and inhibition constants. […] The uncatalyzed rates were determined in the same manner and subtracted from the total observed rates. Stock solutions of inhibitor (0.1 mM) were prepared in distilled-deionized water and dilutions up to 0.01 nM were done thereafter with the assay buffer. […] The inhibition constants were obtained by non-linear least-squares methods using PRISM 3 and the Cheng-Prusoff equation, as reported earlier and represent the mean from at least three different determinations. All CA isofoms were recombinant ones obtained in-house.

hCA II = biological target: T2, hCA II (Homo sapiens, UniProt P00918); experiment: Stopped flow CO2 hydrase assay, hCA II; type: biochemical; settings: mean from 3 assays, read-out: K1, hCA II
T2 construct: made in house
Procedure: as §1

hCA IV = biological target: T3, hCA IV (Homo sapiens, UniProt P22748); experiment: Stopped flow CO2 hydrase assay, hCA IV; type: biochemical; settings: mean from 3 assays; for Ki: read-out: K1, hCA IV
T3 construct: made in house
T3 sequence (P22748 19-284): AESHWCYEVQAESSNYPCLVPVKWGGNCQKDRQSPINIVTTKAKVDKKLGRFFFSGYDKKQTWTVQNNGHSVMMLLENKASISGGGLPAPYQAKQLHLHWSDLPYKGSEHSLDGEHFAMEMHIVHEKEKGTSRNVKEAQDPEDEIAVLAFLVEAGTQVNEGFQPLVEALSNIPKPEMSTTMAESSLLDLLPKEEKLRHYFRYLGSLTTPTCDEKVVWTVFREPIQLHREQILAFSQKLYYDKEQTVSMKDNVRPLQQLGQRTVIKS
Procedure: as §1

hCA VII = biological target: T4, hCA VII (Homo sapiens, UniProt P43166); experiment: Stopped flow CO2 hydrase assay, hCA VII; type: biochemical; settings: mean from 3 assays, read-out: K1, hCA VII
T4 construct: made in house
T4 sequence (P43166 whole entry): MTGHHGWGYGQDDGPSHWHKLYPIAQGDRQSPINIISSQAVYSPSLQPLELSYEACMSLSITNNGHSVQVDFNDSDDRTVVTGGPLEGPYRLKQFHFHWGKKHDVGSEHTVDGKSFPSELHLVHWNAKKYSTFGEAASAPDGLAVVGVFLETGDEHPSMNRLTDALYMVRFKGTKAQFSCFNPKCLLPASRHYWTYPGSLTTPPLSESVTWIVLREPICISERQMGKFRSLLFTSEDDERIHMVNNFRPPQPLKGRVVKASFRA
Procedure: as §1

6 Hz psychomotor seizure = 6 Hz psychomotor seizure test in mice; settings: Mus musculus, ip, read-out: 6 Hz, number of mice protected/number of mice tested
[1] = test system: maximal electroshock seizure (MES); experiment: Maximal electroshock seizure (MES) test in mice; settings: Mus musculus, ip, read-out: MES, number of mice protected/number of mice tested
mice = experiment: Neurotoxicity (minimal motor impairment, rotarod) in mice; settings: mice i.p.

T1 sequence (P00915 whole entry): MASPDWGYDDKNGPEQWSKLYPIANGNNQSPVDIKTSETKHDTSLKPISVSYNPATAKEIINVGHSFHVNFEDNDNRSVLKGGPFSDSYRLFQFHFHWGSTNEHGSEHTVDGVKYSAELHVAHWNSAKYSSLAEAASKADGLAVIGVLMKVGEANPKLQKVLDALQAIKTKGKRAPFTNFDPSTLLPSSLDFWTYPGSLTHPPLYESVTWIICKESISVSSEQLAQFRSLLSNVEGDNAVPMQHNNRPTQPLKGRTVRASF

Row | Ki (hCA I) [nM] | Ki (hCA II) [nM] | Ki (hCA IV) [nM] | Ki (hCA VII) [nM] | melting point [°C] | SMILES | responders at 30 mg/kg (6 Hz psychomotor seizure; 0.5 h) [%] | responders at 100 mg/kg (6 Hz psychomotor seizure; 0.5 h) [%] | responders at 300 mg/kg (6 Hz psychomotor seizure; 0.5 h) [%] | responders at 30 mg/kg (6 Hz psychomotor seizure; 2 h) [%] | responders at 100 mg/kg (6 Hz psychomotor seizure; 2 h) [%] | responders at 300 mg/kg (6 Hz psychomotor seizure; 2 h) [%] | responders at 30 mg/kg ([1]; 0.5 h) [%] | responders at 100 mg/kg ([1]; 0.5 h) [%] | responders at 300 mg/kg ([1]; 0.5 h) [%] | responders at 30 mg/kg ([1]; 2 h) [%] | responders at 100 mg/kg ([1]; 2 h) [%] | responders at 300 mg/kg ([1]; 2 h) [%] | Tox (motor impairment or sedation), number of animals affected/number of animals tested (mice; 30 mg/kg, 0.5 h) | Tox (motor impairment or sedation), number of animals affected/number of animals tested (mice; 30 mg/kg, 2.0 h) | Tox (motor impairment or sedation), number of animals affected/number of animals tested (mice; 100 mg/kg, 0.5 h) | other results
1 | 485 | 19.6 | > 10000 | > 10000 | 176 to 177 | CCCC(CCC)COC(=O)Nc1ccc(S(N)(=O)=O)cc1 [Compound 3, 2-propylpentyl (4-sulfamoylphenyl)carbamate] | 0 | 0 | 25 | 0 | 0 | 0 | 0 | 0 | 0 | 0 | 0 | 0 | 0/8 | 0/8 | 0/8 | Tox (motor impairment or sedation), number of animals affected/number of animals tested (mice; 100 mg/kg, 2.0 h): 0/8; Tox (motor impairment or sedation), number of animals affected/number of animals tested (mice; 300 mg/kg, 0.5 h): 0/8; Tox (motor impairment or sedation), number of animals affected/number of animals tested (mice; 300 mg/kg, 2.0 h): 0/8
2 | 5.9 | 0.6 | 303 | 24.5 | 212 to 213 | NS(=O)(=O)c1ccc(NC(=O)OCCc2ccccc2)cc1 [Compound 5, phenethyl (4-sulfamoylphenyl)carbamate] | 0 | 0 | 0 | 0 | 0 | 0 | 0 | 0 | 0 | 25 | 25 | 50 | 0/8 | 0/8 | 0/8 | K1, hCA IV (hCA IV): medium potency inhibitors; Tox (motor impairment or sedation), number of animals affected/number of animals tested (mice; 100 mg/kg, 2.0 h): 0/8; Tox (motor impairment or sedation), number of animals affected/number of animals tested (mice; 300 mg/kg, 0.5 h): 0/8; Tox (motor impairment or sedation), number of animals affected/number of animals tested (mice; 300 mg/kg, 2.0 h): 0/8
3 | 421 | 8.7 | > 10000 | > 10000 | 192 to 195 | CCCCC(CC)COC(=O)Nc1ccc(S(N)(=O)=O)cc1 (stereo not shown) [Compound 2, 2-ethylhexyl (4-sulfamoylphenyl)carbamate] | 0 | 75 | 50 | 0 | 0 | 25 | 0 | 25 | 25 | 0 | 0 | 25 | 0/8 | 0/8 | 0/8 | Tox (motor impairment or sedation), number of animals affected/number of animals tested (mice; 100 mg/kg, 2.0 h): 0/8; Tox (motor impairment or sedation), number of animals affected/number of animals tested (mice; 300 mg/kg, 0.5 h): 0/8; Tox (motor impairment or sedation), number of animals affected/number of animals tested (mice; 300 mg/kg, 2.0 h): 0/8

Further lines, the compound ahead of its results:

Row | SMILES | Ki (hCA I) [nM] | Ki (hCA II) [nM] | Ki (hCA IV) [nM] | Ki (hCA VII) [nM] | melting point [°C] | responders at 30 mg/kg (6 Hz psychomotor seizure; 0.5 h) [%] | responders at 100 mg/kg (6 Hz psychomotor seizure; 0.5 h) [%] | responders at 300 mg/kg (6 Hz psychomotor seizure; 0.5 h) [%] | responders at 30 mg/kg (6 Hz psychomotor seizure; 2 h) [%] | responders at 100 mg/kg (6 Hz psychomotor seizure; 2 h) [%] | responders at 300 mg/kg (6 Hz psychomotor seizure; 2 h) [%] | responders at 30 mg/kg ([1]; 0.5 h) [%] | responders at 100 mg/kg ([1]; 0.5 h) [%] | responders at 300 mg/kg ([1]; 0.5 h) [%] | responders at 30 mg/kg ([1]; 2 h) [%] | responders at 100 mg/kg ([1]; 2 h) [%] | responders at 300 mg/kg ([1]; 2 h) [%] | Tox (motor impairment or sedation), number of animals affected/number of animals tested (mice; 30 mg/kg, 0.5 h) | Tox (motor impairment or sedation), number of animals affected/number of animals tested (mice; 30 mg/kg, 2.0 h) | Tox (motor impairment or sedation), number of animals affected/number of animals tested (mice; 100 mg/kg, 0.5 h) | other results
4 | CC(C)(C)CCOC(=O)Nc1ccc(S(N)(=O)=O)cc1 [Compound 4, 3,3-dimethylbutyl (4-sulfamoylphenyl)carbamate] | 59.5 | 4.5 | 1840 | 44.4 | 170 to 173 | 0 | 0 | 0 | 0 | 0 | 0 | 0 | 0 | 25 | 0 | 0 | 25 | 0/8 | 0/8 | 0/8 | Tox (motor impairment or sedation), number of animals affected/number of animals tested (mice; 100 mg/kg, 2.0 h): 0/8; Tox (motor impairment or sedation), number of animals affected/number of animals tested (mice; 300 mg/kg, 0.5 h): 0/8; Tox (motor impairment or sedation), number of animals affected/number of animals tested (mice; 300 mg/kg, 2.0 h): 0/8
5 | CC(COC(=O)Nc1ccc(S(N)(=O)=O)cc1)CC(C)(C)C (stereo not shown) [Compound 7, 2,4,4-trimethylpentyl (4-sulfamoylphenyl)carbamate] | 83.5 | 5 | 2760 | 712 | 199 to 201 | 25 | 25 | 100 | 0 | 50 | 75 | 0 | 0 | 0 | 0 | 25 | 50 | 0/8 | 0/8 | 0/8 | Tox (motor impairment or sedation), number of animals affected/number of animals tested (mice; 100 mg/kg, 2.0 h): 0/8; Tox (motor impairment or sedation), number of animals affected/number of animals tested (mice; 300 mg/kg, 0.5 h): 0/8; Tox (motor impairment or sedation), number of animals affected/number of animals tested (mice; 300 mg/kg, 2.0 h): 0/8
6 | CC(C)C(OC(=O)Nc1ccc(S(N)(=O)=O)cc1)C(C)C [Compound 8, 2,4-dimethylpentan-3-yl (4-sulfamoylphenyl)carbamate] | 21 | 3.7 | 452 | 35.4 | 193 to 194 | 0 | 0 | 50 | 0 | 0 | 25 | 0 | 0 | 25 | 50 | 100 | 100 | 0/8 | 0/8 | 0/8 | K1, hCA IV (hCA IV): medium potency inhibitors; Tox (motor impairment or sedation), number of animals affected/number of animals tested (mice; 100 mg/kg, 2.0 h): 0/8; Tox (motor impairment or sedation), number of animals affected/number of animals tested (mice; 300 mg/kg, 0.5 h): 1/8; Tox (motor impairment or sedation), number of animals affected/number of animals tested (mice; 300 mg/kg, 2.0 h): 0/8
7 | CCC(CC)COC(=O)Nc1ccc(S(N)(=O)=O)cc1 [Compound 6, 2-ethylbutyl (4-sulfamoylphenyl)carbamate] | 169 | 5.2 | 1690 | 52 | 162 to 165 | 0 | 25 | 25 | 0 | 0 | 25 | 0 | 0 | 0 | 0 | 0 | 0 | 0/8 | 0/8 | 0/8 | Tox (motor impairment or sedation), number of animals affected/number of animals tested (mice; 100 mg/kg, 2.0 h): 0/8; Tox (motor impairment or sedation), number of animals affected/number of animals tested (mice; 300 mg/kg, 0.5 h): 0/8; Tox (motor impairment or sedation), number of animals affected/number of animals tested (mice; 300 mg/kg, 2.0 h): 0/8
